ChEMBL document CHEMBL5390218, “Benzimidazole derivatives as tubulin polymerization inhibitors: Design, synthesis and in vitro cytotoxicity studies” (Bioorg Med Chem Lett, 2023)
Activity calls are given as the source filed them. The rule behind the calls is not given here.

Legend:
SK-MEL-28 [1] = experiment: Inhibition of cell migration in human SK-MEL-28 cells at 1 to 5 uM incubated for 0 to 48 hrs by wound healing assay; format: functional, cell-based; details: dose 1-5 µM, time 0-48 hrs
Tubulin (Homo sapiens) [2] = target: T1, Tubulin (Homo sapiens) (UniProt P68371+Q9H4B7+P0DPH7+P68366+Q13509+Q71U36+P04350+Q3ZCM7+P07437+P68363+Q9BQE3+Q6PEY2+Q13885+Q9BVA1+Q9BUF5); experiment: Inhibition of tubulin polymerization (unknown origin) at 0.75 uM incubated for 1 hr relative to control; format: protein-complex assay
SK-MEL-28 [3] = experiment: Induction of apoptosis in human SK-MEL-28 cells assessed as necrotic cells at 5 uM incubated for 24 hrs by Annexin V-FITC/PI staining based flow cytometry analysis (reference value: 0.1%); format: functional
SK-MEL-28 [4] = experiment: Induction of apoptosis in human SK-MEL-28 cells assessed as necrotic cells at 1 uM incubated for 24 hrs by Annexin V-FITC/PI staining based flow cytometry analysis (reference value: 0.1%); format: functional
SK-MEL-28 [5] = experiment: Induction of morphological changes in human SK-MEL-28 cells assessed as appearance of nuclei at 1 to 5 uM measured after 48 hrs DAPI staining based analysis; format: functional, cell-based; details: dose 1-5 µM
SK-MEL-28 [6] = experiment: Induction of cell cycle arrest in human SK-MEL-28 cells assessed as accumulation of cells at G0-G1 phase at 5 uM measured after 48 hrs by PI staining based flow cytometry (reference value: 74.32%); format: functional
SK-MEL-28 [7] = experiment: Induction of morphological changes in human SK-MEL-28 cells assessed as bright fragmented nuclei at 1 to 5 uM measured after 48 hrs DAPI staining based analysis; format: functional, cell-based; details: dose 1-5 µM
SK-MEL-28 [8] = experiment: Induction of mitochondrial membrane potential depolarization in human SK-MEL-28 cells assessed as J-monomer level by measuring green fluorescence intensity at 1 uM incubated for 48 hrs by JC-1 staining based analysis (reference value: 0.8%); format: functional
A549 = experiment: Anticancer activity against human A549 cells assessed as inhibition in cell growth measured after 72 hrs by MTT assay; format: functional, cell-based; details: A549, 72 h
Tubulin (Homo sapiens) [9] = target: T1, Tubulin (Homo sapiens); experiment: Inhibition of tubulin polymerization (unknown origin) at 1.5 uM incubated for 1 hr relative to control; format: protein-complex assay
SK-MEL-28 [10] = experiment: Induction of apoptosis in human SK-MEL-28 cells assessed as live cells at 1 uM incubated for 24 hrs by Annexin V-FITC/PI dual staining based flow cytometry analysis (reference value: 99.9%); format: functional
Tubulin (Homo sapiens) [11] = target: T1, Tubulin (Homo sapiens); experiment: Inhibition of tubulin polymerization (unknown origin) at 3 uM incubated for 1 hr relative to control; format: protein-complex assay
[12] = Selectivity index, ratio of IC50 for NRK-52E cells to ratio of IC50 for human MCF7 cells; format: toxicity; details: rat (NRK-52E), NRK-52E cells versus MCF7 cells, read-out: Selectivity Index
SK-MEL-28 [13] = experiment: Induction of apoptosis in human SK-MEL-28 cells assessed as early apoptotic cells at 5 uM incubated for 24 hrs by Annexin V-FITC/PI dual staining based flow cytometry analysis (reference value: 0.0%); format: functional
MCF7 = experiment: Anticancer activity against human MCF7 cells assessed as inhibition in cell growth measured after 72 hrs by MTT assay; format: functional, cell-based; details: MCF7, 72 h
SK-MEL-28 [14] = experiment: Induction of apoptosis in human SK-MEL-28 cells assessed as early apoptotic cells at 1 uM incubated for 24 hrs by Annexin V-FITC/PI dual staining based flow cytometry analysis (reference value: 0.0%); format: functional
SK-MEL-28 [15] = experiment: Induction of morphological changes in human SK-MEL-28 cells assessed as chromatin condensation by ethidium bromide/acridine orange staining based analysis; format: functional, cell-based; details: dose 1-5 µM
SK-MEL-28 [16] = experiment: Induction of morphological changes in human SK-MEL-28 cells assessed as production of apoptotic bodies by ethidium bromide/acridine orange staining based analysis; format: functional, cell-based; details: dose 1-5 µM
SK-MEL-28 [17] = experiment: Induction of mitochondrial membrane potential changes in human SK-MEL-28 cells assessed as J-aggregate level by measuring red fluorescence intensity at 5 uM incubated for 48 hrs by JC-1 staining based analysis (reference value: 98.9%); format: functional
SK-MEL-28 [18] = experiment: Induction of cell cycle arrest in human SK-MEL-28 cells assessed as accumulation of cells at G0-G1 phase at 1 uM measured after 48 hrs by PI staining based flow cytometry (reference value: 74.32%); format: functional
B16-F10 = experiment: Anticancer activity against mouse B16-F10 cells assessed as inhibition in cell growth measured after 72 hrs by MTT assay; format: functional, cell-based; details: B16-F10, 72 h
SK-MEL-28 [19] = experiment: Induction of morphological changes in human SK-MEL-28 cells assessed as bright pyknotic nuclei at 1 to 5 uM measured after 48 hrs DAPI staining based analysis; format: functional, cell-based; details: dose 1-5 µM
SK-MEL-28 [20] = experiment: Induction of ROS generation in human SK-MEL-28 cells by DCFDA staining based analysis; format: functional, cell-based; details: dose 1-5 µM
SK-MEL-28 [21] = experiment: Induction of morphological changes in human SK-MEL-28 cells assessed as nuclear shrinkage at 1 to 5 uM measured after 48 hrs DAPI staining based analysis; format: functional, cell-based; details: dose 1-5 µM
SK-MEL-28 [22] = experiment: Inhibition of cell migration in human SK-MEL-28 cells at 1 to 5 uM incubated for 0 to 48 hrs by phase-contrast microscopy; format: functional, cell-based; details: dose 1-5 µM, time 0-48 hrs
[23] = Cytotoxicity against NRK-52E cells assessed as inhibition in cell growth measured after 72 hrs by MTT assay; format: toxicity, cell-based; details: rat
Tubulin (Homo sapiens) [24] = target: T1, Tubulin (Homo sapiens); experiment: Inhibition of tubulin polymerization (unknown origin) at 12 uM incubated for 1 hr relative to control; format: protein-complex assay
SK-MEL-28 [25] = experiment: Induction of apoptosis in human SK-MEL-28 cells assessed as live cells at 5 uM incubated for 24 hrs by Annexin V-FITC/PI dual staining based flow cytometry analysis (reference value: 99.9%); format: functional
SK-MEL-28 [26] = experiment: Induction of mitochondrial membrane potential depolarization in human SK-MEL-28 cells assessed as J-monomer level by measuring green fluorescence intensity at 5 uM incubated for 48 hrs by JC-1 staining based analysis (reference value: 0.8%); format: functional
SK-MEL-28 [27] = experiment: Induction of mitochondrial membrane potential depolarization in human SK-MEL-28 cells assessed as J-monomer level by measuring green fluorescence intensity at 2.5 uM incubated for 48 hrs by JC-1 staining based analysis (reference value: 0.8%); format: functional
[28] = Selectivity index, ratio of IC50 for NRK-52E cells to ratio of IC50 for human SK-MEL-28 cells
Tubulin (Homo sapiens) [29] = target: T1, Tubulin (Homo sapiens); experiment: (§1) Inhibition of tubulin polymerization (unknown origin) incubated for 1 hr; format: protein-complex assay; details: dose 0.75-12 µM
Tubulin = experiment: as §1; format: protein-complex assay, Homo sapiens
SK-MEL-28 [30] = experiment: Induction of morphological changes in human SK-MEL-28 cells assessed as membrane blebbing by ethidium bromide/acridine orange staining based analysis; format: functional, cell-based; details: dose 1-5 µM
SK-MEL-28 [31] = experiment: Induction of mitochondrial membrane potential changes in human SK-MEL-28 cells assessed as J-aggregate level by measuring red fluorescence intensity at 1 uM incubated for 48 hrs by JC-1 staining based analysis (reference value: 98.9%); format: functional
Tubulin (Homo sapiens) [32] = target: T1, Tubulin (Homo sapiens); experiment: Inhibition of tubulin polymerization (unknown origin) at 6 uM incubated for 1 hr relative to control; format: protein-complex assay
SK-MEL-28 [33] = experiment: Induction of apoptosis in human SK-MEL-28 cells assessed as live cells at 2.5 uM incubated for 24 hrs by Annexin V-FITC/PI dual staining based flow cytometry analysis (reference value: 99.9%); format: functional

inhibition (Tubulin (Homo sapiens) [2]): 20.4%
IC50 (A549): 3.84 µM
inhibition (Tubulin (Homo sapiens) [9]): 35.1%
inhibition (Tubulin (Homo sapiens) [11]): 47.4%
IC50 (MCF7): 17.9 µM
IC50 (B16-F10): 3.1 µM
inhibition (Tubulin (Homo sapiens) [24]): 64.1%
inhibition (Tubulin (Homo sapiens) [29]): Dose-Dependent Effect
IC50 (Tubulin): 5.65 µM
inhibition (Tubulin (Homo sapiens) [32]): 52.4%
Structure (SMILES): COc1cc(-c2nc3cc(F)ccc3[nH]2)ccc1OCC(=O)N1CCc2ccccc21
inhibition (SK-MEL-28 [1]): Active
Activity (SK-MEL-28 [3]): 13%
Activity (SK-MEL-28 [4]): 0%
Activity (SK-MEL-28 [5]): Active
Activity (SK-MEL-28 [6]): 49.28%
Activity (SK-MEL-28 [7]): Active
Activity (SK-MEL-28 [8]): 2%
Activity (SK-MEL-28 [10]): 28.5%
selectivity ratio [12]: 3
Activity (SK-MEL-28 [13]): 1.3%
Activity (SK-MEL-28 [14]): 60.8%
Activity (SK-MEL-28 [15]): Dose-Dependent Effect
Activity (SK-MEL-28 [16]): Dose-Dependent Effect
Activity (SK-MEL-28 [17]): 85.1%
Activity (SK-MEL-28 [18]): 61.71%
Activity (SK-MEL-28 [19]): Active
Activity (SK-MEL-28 [20]): Dose-Dependent Effect
Activity (SK-MEL-28 [21]): Active
inhibition (SK-MEL-28 [22]): Active
IC50 at 72 h [23]: 53.8 µM
Activity (SK-MEL-28 [25]): 50.7%
Activity (SK-MEL-28 [26]): 14.9%
Activity (SK-MEL-28 [27]): 3.2%
Selectivity Index [28]: 20
Activity (SK-MEL-28 [30]): Dose-Dependent Effect
Activity (SK-MEL-28 [31]): 97.9%
Activity (SK-MEL-28 [33]): 52.5%
